Source: patent publication US4789736A, “Complexes of technetium-99m with propylene amine oximes” (Amersham International plc, priority 1985, dated 1988)

Experiment: Animal biodistribution of Tc-99m complexes of ligands, no separation of stereoisomers (Example 22)
Assay type: in vivo, rats
Details: i.v. rats
Experimental: The ratio of diastereoisomers in the Tc-99m complexes used in this experiment is not known.
The results at 2 minutes and 1 hour p.i. are the mean of 3 animals.
The results at 2 hours p.i. are the mean of 2 animals.

Compound	% id/organ, Blood (2 min pi, mean of 3 animals) [% id/organ]	% id/organ, Brain (2 min pi, mean of 3 animals) [% id/organ]	% id/organ, Liver (2 min pi, mean of 3 animals) [% id/organ]	% id/organ, Blood (1 hr pi, mean of 3 animals) [% id/organ]	% id/organ, Brain (1 hr pi, mean of 3 animals) [% id/organ]	% id/organ, Liver (1 hr pi, mean of 3 animals) [% id/organ]	% id/organ, Heart (2 min pi, mean of 3 animals) [% id/organ]	% id/organ, Blood (2 hr pi, mean of 2 animals) [% id/organ]	% id/organ, Brain (2 hr pi, mean of 2 animals) [% id/organ]	% id/organ, Heart (2 hr pi, mean of 2 animals) [% id/organ]	% id/organ, Liver (2 hr pi, mean of 2 animals) [% id/organ]	% id/organ, Heart (1 hr pi, mean of 3 animals) [% id/organ]
CCCC(=NO)C(C)NCCCNC(C)C(CCC)=NO (stereo not shown) [Compound 5, 6,10-Diaza-5,11-dimethylpentadecane-4,12-dione bis oxime]	10.5	0.8	18.0	2.8	0.6	12.1						
CCC(=NO)C(C)NCC(C)(C)CNC(C)C(CC)=NO (stereo not shown) [Compound 6, 5,9-Diaza-4,7,7,10-tetramethyltridecane-3,11-dione bis oxime]	5.8	1.2	19.6				0.4	2.6	0.4	0.2	13.5	
CCC(CC)(CNC(C)C(C)=NO)CNC(C)C(C)=NO (stereo not shown) [Compound 7, 4,8-Diaza-6,6-diethyl-3,9-dimethylundecane-2,10-dione bis oxime]	7.4	1.0	20.6	3.3	0.5	36.5						
CC(=NO)C(NCCCNC(C(C)=NO)c1ccccc1)c1ccccc1 (stereo not shown) [Compound 10, 4,8-Diaza-3,9-diphenylundecane-2,10-dione bis oxime]	14.0	0.4	32.9				0.5	2.7	0.6	0.3	16.9	
CC(=NO)C(C)NCC(C)CNC(C)C(C)=NO (stereo not shown) [Compound 11, 4,8-Diaza-3,6,9-trimethylundecane-2,10-dione bis oxime]	11.9	1.3	12.3	4.7	1.0	10.2	0.8					0.4
CC(=NO)C(C)NC(C)CC(C)NC(C)C(C)=NO (stereo not shown) [Compound 12, 4,8-Diaza-3,5,7,9-tetramethylundecane-2,10 bis oxime]	8.6	1.0	23.9	6.0	0.9	19.7	0.5					0.3
CC(C)C(=NO)C(C)NCCCNC(C)C(=NO)C(C)C (stereo not shown) [Compound 13, 5,9-Diaza-2,4,10,12-tetramethyltridecane-3,11-dione bis oxime]	15.2	0.5	15.9	7.2	0.2	12.5	0.6					0.2
